According to ChEMBL document CHEMBL1240450, “Design, synthesis and biological evaluation of novel quinazoline derivatives as potential antitumor agents: molecular docking study” (Eur J Med Chem, 2010):
≈ marks a conversion by molar mass, not a printed value.

How the values were obtained:
[1] = system: MCF7; assay: Antitumor activity against human MCF7 cells after 48 hrs by Sulphorhodamine-B assay; settings: MCF7, 48 h
[2] = system: HepG2; assay: Antitumor activity against human HepG2 cells after 48 hrs by Sulphorhodamine-B assay; settings: HepG2, 48 h
[3] = system: HeLa; assay: Antitumor activity against human HeLa cells after 48 hrs by Sulphorhodamine-B assay

IC50 [1] [µg/mL]	IC50 [2] [µg/mL]	IC50 [3] [µg/mL]	Compound
15.8 (≈ 34.1 µM)	5.99 (≈ 12.9 µM)	10.1 (≈ 21.8 µM)	CCOc1ccc(NC(=O)CSc2nc(-c3ccc(C)cc3)nc3ccc(Cl)cc23)cc1
10.5 (≈ 38.6 µM)	22.5 (≈ 82.8 µM)	8.23 (≈ 30.3 µM)	Cc1ccc(-c2nc3ccc(Cl)cc3c(=O)o2)cc1
3.76 (≈ 13.9 µM)	14.5 (≈ 53.8 µM)	3.56 (≈ 13.2 µM)	Cc1ccc(-c2nc(N)c3cc(Cl)ccc3n2)cc1
14.7 (≈ 50.7 µM)	15.9 (≈ 55.1 µM)	18.9 (≈ 65.2 µM)	Cc1ccc(C(=O)Nc2ccc(Cl)cc2C(=O)O)cc1
3.76 (≈ 13.2 µM)	4.17 (≈ 14.6 µM)	3.98 (≈ 14 µM)	Cc1ccc(-c2nc(NN)c3cc(Cl)ccc3n2)cc1
8.03 (≈ 24.6 µM)	23.9 (≈ 73.1 µM)	9.66 (≈ 29.6 µM)	C=CCSc1nc(-c2ccc(C)cc2)nc2ccc(Cl)cc12
6.81 (≈ 23.8 µM)	23.1 (≈ 80.8 µM)	12.7 (≈ 44.4 µM)	Cc1ccc(-c2nc(NO)c3cc(Cl)ccc3n2)cc1
5.59 (≈ 16.3 µM)	9.45 (≈ 27.5 µM)	4.98 (≈ 14.5 µM)	Cc1ccc(-c2nc(SCC(N)=O)c3cc(Cl)ccc3n2)cc1
14.7 (≈ 33.6 µM)	18.4 (≈ 42 µM)	10.5 (≈ 24 µM)	Cc1ccc(-c2nc(SCC(=O)Nc3ccc(F)cc3)c3cc(Cl)ccc3n2)cc1
3.76 (≈ 6.92 µM)	4.57 (≈ 8.41 µM)	3.64 (≈ 6.7 µM)	COc1cccc2c1C(=O)c1c(O)c3c(c(O)c1C2=O)C[C@@](O)(C(=O)CO)C[C@@H]3O[C@H]1C[C@H](N)[C@H](O)[C@H](C)O1 [DOXORUBICIN]
9.66 (≈ 25.6 µM)	18.4 (≈ 48.8 µM)	11.3 (≈ 30 µM)	Cc1ccc(-c2nc(SCc3ccccc3)c3cc(Cl)ccc3n2)cc1
5.59 (≈ 14.3 µM)	12.1 (≈ 31 µM)	5.18 (≈ 13.3 µM)	Cc1ccc(-c2nc(NOC(=O)c3ccccc3)c3cc(Cl)ccc3n2)cc1
4.78 (≈ 11.4 µM)	14.3 (≈ 34.1 µM)	11.7 (≈ 27.9 µM)	Cc1ccc(-c2nc(SCC(=O)Nc3ccccc3)c3cc(Cl)ccc3n2)cc1
5.18 (≈ 18 µM)	11.1 (≈ 38.6 µM)	13.3 (≈ 46.2 µM)	Cc1ccc(-c2nc3ccc(Cl)cc3c(=S)o2)cc1
3.35 (≈ 10.3 µM)	4.37 (≈ 13.4 µM)	3.76 (≈ 11.5 µM)	Cc1ccc(-c2nc(SCC#N)c3cc(Cl)ccc3n2)cc1
9.25 (≈ 30.6 µM)	17 (≈ 56.3 µM)	14 (≈ 46.4 µM)	Cc1ccc(-c2nc3ccc(Cl)cc3c(=S)n2N)cc1
5.39 (≈ 18.9 µM)	18.4 (≈ 64.4 µM)	12.1 (≈ 42.3 µM)	Cc1ccc(-c2nc3ccc(Cl)cc3c(=O)n2N)cc1
16.1 (≈ 43.1 µM)	17.5 (≈ 46.8 µM)	16.2 (≈ 43.3 µM)	Cc1ccc(-c2nc(NC(=O)c3ccccc3)c3cc(Cl)ccc3n2)cc1
5.79 (≈ 13.3 µM)	18.8 (≈ 43.3 µM)	12.3 (≈ 28.3 µM)	Cc1ccc(NC(=O)CSc2nc(-c3ccc(C)cc3)nc3ccc(Cl)cc23)cc1
3.96 (≈ 9.68 µM)	7.21 (≈ 17.6 µM)	7.01 (≈ 17.1 µM)	Cc1ccc(-c2nc(S(=O)(=O)Cc3ccccc3)c3cc(Cl)ccc3n2)cc1
4.98 (≈ 18.4 µM)	9.86 (≈ 36.4 µM)	10.1 (≈ 37.3 µM)	Cc1ccc(-c2nc3ccc(Cl)cc3c(=O)[nH]2)cc1
8.64 (≈ 28.7 µM)	13.3 (≈ 44.2 µM)	14.7 (≈ 48.9 µM)	CSc1nc(-c2ccc(C)cc2)nc2ccc(Cl)cc12
3.56 (≈ 8.71 µM)	5.59 (≈ 13.7 µM)	5.39 (≈ 13.2 µM)	Cc1ccc(-c2nc(Sc3ncccc3[N+](=O)[O-])c3cc(Cl)ccc3n2)cc1
3.35 (≈ 10.5 µM)	5.59 (≈ 17.5 µM)	4.98 (≈ 15.6 µM)	Cc1ccc(C(=O)Nc2ccc(Cl)cc2C(=S)NN)cc1
3.35 (≈ 11.8 µM)	4.17 (≈ 14.6 µM)	4.37 (≈ 15.3 µM)	Cc1ccc(-c2nc3ccc(Cl)cc3c(=O)n2C)cc1
3.76 (≈ 11.4 µM)	9.04 (≈ 27.3 µM)	9.25 (≈ 28 µM)	Cc1ccc(-c2nc(SCCO)c3cc(Cl)ccc3n2)cc1
3.35 (≈ 11.7 µM)	7.01 (≈ 24.4 µM)	4.57 (≈ 15.9 µM)	Cc1ccc(-c2nc3ccc(Cl)cc3c(=S)[nH]2)cc1
5.39 (≈ 18.7 µM)	21 (≈ 72.7 µM)	8.23 (≈ 28.5 µM)	Cc1ccc(C(=O)Nc2ccc(Cl)cc2C(N)=O)cc1
